Tests used:
[1] = refractive index (Na D-line) (dimensionless); conditions: 100 kPa, Liquid, Standard Abbe refractometry
[2] = 100 kPa, Liquid, Falling or rolling sphere viscometry
[3] = refractive index (Na D-line) (dimensionless); xn = mol fraction of the nth substance listed; conditions: 100 kPa, Liquid, Standard Abbe refractometry
[4] = xn = mol fraction of the nth substance listed; conditions: 100 kPa, Liquid, Falling or rolling sphere viscometry

CCCCn1cc[n+](C)c1.F[B-](F)(F)F [1-butyl-3-methylimidazolium tetrafluoroborate]
Conditions	refractive index, 293.15 K	refractive index, 303.15 K	refractive index, 313.15 K	refractive index, 323.15 K	viscosity, 293.15 K [mPa·s]	viscosity, 303.15 K [mPa·s]	viscosity, 313.15 K [mPa·s]	viscosity, 323.15 K [mPa·s]
[1]	1.42144	1.41913	1.41621	1.4133	–	–	–	–
[2]	–	–	–	–	135.7	80.4	51.4	34.92

CCCCn1cc[n+](C)c1.F[B-](F)(F)F [1-butyl-3-methylimidazolium tetrafluoroborate] + Nc1ccccc1
x1 = 1
Conditions	refractive index, 293.15 K	refractive index, 303.15 K	refractive index, 313.15 K	refractive index, 323.15 K	viscosity, 293.15 K [mPa·s]	viscosity, 303.15 K [mPa·s]	viscosity, 313.15 K [mPa·s]	viscosity, 323.15 K [mPa·s]
[3]	1.42144	1.41913	1.41621	1.4133	–	–	–	–
[4]	–	–	–	–	135.7	80.4	51.4	34.92

CCn1cc[n+](C)c1.F[B-](F)(F)F [1-ethyl-3-methylimidazolium tetrafluoroborate]
Conditions	refractive index, 293.15 K	refractive index, 303.15 K	refractive index, 313.15 K	refractive index, 323.15 K	viscosity, 293.15 K [mPa·s]	viscosity, 303.15 K [mPa·s]	viscosity, 313.15 K [mPa·s]	viscosity, 323.15 K [mPa·s]
[1]	1.41509	1.41117	1.40802	1.40512	–	–	–	–
[2]	–	–	–	–	45.69	30.54	21.82	16.42

CCn1cc[n+](C)c1.F[B-](F)(F)F [1-ethyl-3-methylimidazolium tetrafluoroborate] + Nc1ccccc1
x1 = 1
Conditions	refractive index, 293.15 K	refractive index, 303.15 K	refractive index, 313.15 K	refractive index, 323.15 K	viscosity, 293.15 K [mPa·s]	viscosity, 303.15 K [mPa·s]	viscosity, 313.15 K [mPa·s]	viscosity, 323.15 K [mPa·s]
[3]	1.41509	1.41117	1.40802	1.40512	–	–	–	–
[4]	–	–	–	–	45.69	30.54	21.82	16.42

Nc1ccccc1 [aniline]
Conditions	refractive index, 293.15 K	refractive index, 303.15 K	refractive index, 313.15 K	refractive index, 323.15 K	viscosity, 293.15 K [mPa·s]	viscosity, 303.15 K [mPa·s]	viscosity, 313.15 K [mPa·s]	viscosity, 323.15 K [mPa·s]
[1]	1.58481	1.58152	1.57823	1.57494	–	–	–	–
[2]	–	–	–	–	4.38	3.24	2.47	1.95

Nc1ccccc1 [aniline] + CCCCn1cc[n+](C)c1.F[B-](F)(F)F
Conditions	refractive index, [3]	viscosity, [4] [mPa·s]
293.15 K, x2 = 0	1.58481	4.38
293.15 K, x2 = 0.1001	1.55273	7.66
293.15 K, x2 = 0.4991	1.47256	36.82
293.15 K, x2 = 0.6032	1.45814	50.14
293.15 K, x2 = 0.7021	1.44443	65.33
293.15 K, x2 = 0.7907	1.43496	81.22
293.15 K, x2 = 0.9026	1.42669	104.99
303.15 K, x2 = 0	1.58152	3.24
303.15 K, x2 = 0.1001	1.54951	5.46
303.15 K, x2 = 0.4991	1.46852	22.05
303.15 K, x2 = 0.6032	1.4544	31.1
303.15 K, x2 = 0.7021	1.44151	40.82
303.15 K, x2 = 0.7907	1.43264	50.78
303.15 K, x2 = 0.9026	1.42433	66.19
313.15 K, x2 = 0	1.57823	2.47
313.15 K, x2 = 0.1001	1.54532	4.04
313.15 K, x2 = 0.4991	1.46448	14.67
313.15 K, x2 = 0.6032	1.45067	20.79
313.15 K, x2 = 0.7021	1.43859	26.92
313.15 K, x2 = 0.7907	1.43031	33.47
313.15 K, x2 = 0.9026	1.42197	42.66
323.15 K, x2 = 0	1.57494	1.95
323.15 K, x2 = 0.1001	1.54114	3.08
323.15 K, x2 = 0.2028	1.51499	4.56
323.15 K, x2 = 0.4991	1.46044	10.52
323.15 K, x2 = 0.6032	1.44694	14.73
323.15 K, x2 = 0.7021	1.43567	18.58
323.15 K, x2 = 0.7907	1.42799	23.06
323.15 K, x2 = 0.9026	1.41961	29.65

— the NIST ThermoML archive (doi:10.1016/j.jct.2019.105891)
